The results in this text go back to patent US9475789B2, “Use of polyenylpyrrole derivatives for treating inflammation” (WELLHEAD BIOLOGICAL TECHNOLOGY CORP., priority 2014, dated 2016).

One assay deals with TNF-α. The assay can be described thus: TNF-α ELISA, LPS-activated peritoneal macrophages. Type of assay: cell-based, C57BL/6 mice. As to conditions: LPS 1 μg/ml 24 h. Here is the method: (A) J774A.1 macrophages (4×10^5/ml), (B) peritoneal macrophages (4×10^5/ml), and (C) JAWSII dendritic cells (4×10^5/ml) were incubated with compound 1h or DMSO for 30 min followed by stimulating with LPS (1 μg/ml) for 24 h, then IL-6 and TNF-α concentration in culture medium were assayed by ELISA. The data are expressed as the mean±SD for three separate experiments. *, **, and *** indicate a significant difference at the level of p<0.05, p<0.01, p<0.001 respectively compared to LPS group.
The effects of tested samples on IL-1β, TNF-α and IL-6 production were measured by ELISA according to the manufacturer's instruction. In brief, 50 μl of biotinylated antibody reagent and 50 μl of supernatant were added to an anti-mouse IL-1β, TNF-α and IL-6 precoated stripwell plate, and incubated at room temperature for 2 h. After washing the plate three times with washing buffer, 100 μl of diluted streptavidin-HRP concentrate was added to each well and incubated at room temperature for 30 min. The washing process was repeated; then 100 μl of a premixed tetramethylbenzidine substrate solution was added to each well and developed at room temperature in the dark for 30 min. Following the addition of 100 μl of stop solution to each well to stop the reaction, the absorbance of the plate was measured by a microplate reader at 450 nm wavelength.
In general terms: An ELISA detects its analyte on a solid surface through an enzyme-linked reagent.

The test system of assay [1] is NLRP3 inflammasome-mediated IL-1β secretion. The assay can be described thus: IL-1β ELISA, LPS+ATP-activated J774A.1 macrophages (NLRP3 inflammasome). Type of assay: cell-based, mouse. The protocol:
(§1) (A) J774A.1 macrophages (1×10^6/ml) and (B) peritoneal macrophages (1×10^5/ml) were incubated with compound 1h for 30 min followed by LPS (1 μg/ml) stimulating for 5.5 h, then the cells were stimulated with ATP (5 mM) for an additional 30 min. The IL-1β in the culture medium was measured by ELISA and the expression of active caspase-1 (p10) was measured by Western blot. In (C) and (D), J774A.1 macrophages (1×10^6/ml) were incubated with LPS (1 μg/ml) for 5.5 h, then cells were incubated with compound 1h for 30 min followed by stimulating with ATP (5 mM) for an additional 30 min. The IL-1β and IL-6 in the culture medium were measured by ELISA and the expression of active caspase-1 (p10) was measured by Western blot. In (E), J774A.1 macrophages (1×10^6/ml) were incubated with compound 1h for 30 min followed by LPS (1 μg/ml) stimulating for 6 h. The expression of NLRP3 and proIL-1β were measured by Western blot.
(§2) The effects of tested samples on IL-1β, TNF-α and IL-6 production were measured by ELISA according to the manufacturer's instruction. […] Following the addition of 100 μl of stop solution to each well to stop the reaction, the absorbance of the plate was measured by a microplate reader at 450 nm wavelength.

A further assay deals with IL-6. Briefly: IL-6 ELISA, LPS-primed ATP-stimulated J774A.1 macrophages. Type of assay: cell-based, mouse. Conditions: LPS-primed J774A.1; compound 30 min before ATP stimulation. Here is the method:
as §1, §2

A further assay has as its system NLRP3. The assay can be described thus: Western blot of NLRP3, LPS-activated J774A.1 macrophages. Type of assay: cell-based, mouse. Conditions: compound 30 min, then LPS 6 h. Here is the method:
as §1
Whole cell lysates were separated by SDS-PAGE and electrotransferred to a PVDF membrane. The membranes were incubated in blocking solution—5% nonfat milk in phosphate buffered saline with 0.1% Tween 20—at room temperature for 1 h. Each membrane was incubated with a specific primary antibody at room temperature for 2 h. After washing three times in PBS with 0.1% Tween 20, the membrane was incubated with an HRP-conjugated secondary antibody directed against the primary antibody. […]

SMILES strings stand for the structures.

Take `O=c1cc(O)cc(/C=C/C=C/C=C/C=C/c2[nH]ccc2Cl)o1` [Compound 1h]: the “secretion of TNF-α” value in the assay on TNF-α was “reduced”. For the same compound, the IL-1β secretion result is reported as “significantly inhibited” in assay [1] (J774A.1, compound before LPS and ATP treatment); “inhibited IL-1β secretion” in assay [1] (LPS-primed J774A.1, compound 30 min before ATP stimulation). The IL-6 secretion result in the assay with IL-6 is recorded as “no significant effect”. In addition, the NLRP3 expression result in the assay with NLRP3 is listed as “increased NLRP3 expression”.
